This is an account of results in US20050209256A1, “Novel beta-turn mimetics as calcitonin gene related peptide receptor antagonists” (priority 2004, published 2005).

Structures are written as SMILES.

For the test, the target named is T1, human CGRP receptor (Homo sapiens, UniProt O60894+Q16602).
T1 construct: SK-N-MC cells that endogenously express the human CGRP receptor; endogenous in cells; host or cells: SK-N-MC cells (membrane homogenates)
The test can be described thus: Radioligand binding assay, [125I]-CGRP competition on SK-N-MC cell homogenates. To be noted: Binding data, [125I]-CGRP 40 pM, room temperature. The method, then: Tissue culture. SK-N-MC cells were grown at 37° C. in 5% CO2 as a monolayer in medium consisting of MEM with Earle's salts and L-glutamine (Gibco) supplemented with 10% fetal bovine serum (Gibco).
Radioligand binding assays. Cells were rinsed twice with phosphate-buffered saline (155 mM NaCl, 3.3 mM Na2HPO4, 1.1 mM KH2PO4, pH 7.4), and incubated for 5-10 min. at 4° C. in hypotonic lysis buffer consisting of 10 mM Tris (pH 7.4) and 5 mM EDTA. Cells were transferred from plates to polypropylene tubes (16×100 mm), homogenized and centrifuged at 32,000×g for 30 min. Pellets were resuspended in buffer consisting of 50 mM Tris (pH 7.4) and 1 mM EDTA, homogenized, and centrifuged again at 32,000×g for 30 min. Pellets were resuspended in 100 mM Tris-Cl pH 7.5, 10 mM MgCl2, 0.1% mammalian protease inhibitor cocktail (Sigma) and stored at −80° C. until needed. On the day of an experiment, homogenates were thawed and homogenized again. Binding of [^125I]-CGRP (NEN) was carried out in buffer containing 50 mM Tris-Cl pH 7.5, 5 mM MgCl2, 0.5% BSA. Homogenates (3.5 μg protein/well) were incubated with competitor compounds (solubilized in 100% DMSO at 100× their final assay concentrations) for one hour at room temperature. Then [^125I]-CGRP was added (40 pM final concentration) and the reaction incubated for one additional hour at room temperature. Assays were stopped by addition of cold wash buffer (20 mM Tris-Cl pH 7.5, 0.1% BSA) immediately followed by filtration over glass fiber filters (Whatman GF/B) previously soaked in 0.5% PEI. Non-specific binding was defined with 100 nM CGRP.
In general, IC50 refers to the midpoint of a concentration-inhibition curve. Low values mean higher potency, high ones lower potency. Compound `CC(=O)c1ccc(NC(=O)N2CCC(=O)N3[C@@H]2CN(CCc2cccc(F)c2)C(=O)[C@@H]3Cc2ccc([N+](=O)[O-])cc2)cc1` [Compound 27, (6S,9aS)-8-[2-(3-Fluoro-phenyl)-ethyl]-6-(4-nitro-benzyl)-4,7-dioxo-hexahydro-pyrazino[1,2-a]pyrimidine-1-carboxylic acid (4-acetyl-phenyl)-amide] registered a concentration for half-maximal inhibition (IC50) of 1.33 µM.
The value for `CC(=O)c1ccc(NC(=O)N2CCC(=O)N3[C@@H]2CN(CCc2cccc(F)c2)C(=O)[C@@H]3CC2CCCCC2)cc1` [Compound 28, (6S,9aS)-6-Cyclohexylmethyl-8-[2-(3-fluoro-phenyl)-ethyl]-4,7-dioxo-hexahydro-pyrazino[1,2-a]pyrimidine-1-carboxylic acid (4-acetyl-phenyl)-amide] was 0.188 µM.
Take `CC(=O)c1ccc(NC(=O)N2CCC(=O)N3[C@@H]2CN(CCc2cccc(F)c2)C(=O)[C@@H]3CC(=O)OCc2ccccc2)cc1` [Compound 30, {1-(4-Acetyl-phenylcarbamoyl)-(6S,9aS)-8-[2-(3-fluoro-phenyl)-ethyl]-4,7-dioxo-octahydro-pyrazino [1,2-a]pyrimidin-6-yl}-acetic acid benzyl ester]: the IC50 is 2.21 µM.
With `CC(=O)c1ccc(NC(=O)N2CCC(=O)N3[C@@H]2CN(CCc2cccc(F)c2)C(=O)[C@@H]3CCCCNC(=O)OCc2ccccc2)cc1` [Compound 31, (4-{1-(4-Acetyl-phenylcarbamoyl)-(6S,9aS)-8-[2-(3-fluoro-phenyl)-ethyl]-4,7-dioxo-octahydro-pyrazino[1,2-a]pyrimidin-6-yl}-butyl)-carbamic acid benzyl ester], the IC50 worked out at 1.05 µM.
In turn, `CC(=O)c1ccc(NC(=O)N2CCC(=O)N3[C@@H]2CN(CCc2cccc(F)c2)C(=O)[C@@H]3COCc2ccccc2)cc1` [Compound 32, (6S,9aS)-6-Benzyloxymethyl-8-[2-(3-fluoro-phenyl)-ethyl]-4,7-dioxo-hexahydro-pyrazino[1,2-a]pyrimidine-1-carboxylic acid (4-acetyl-phenyl)-amide] yielded a 50% inhibitory concentration (IC50) of 0.598 µM.
For the compound `CC(=O)c1ccc(NC(=O)N2CCC(=O)N3[C@@H]2CN(CCc2cccc(F)c2)C(=O)[C@@H]3Cc2ccc(OCc3ccccc3)cc2)cc1` [Compound 33, (6S,9aS)-6-(4-Benzyloxy-benzyl)-8-[2-(3-fluoro-phenyl)-ethyl]-4,7-dioxo-hexahydro-pyrazino[1,2-a]pyrimidine-1-carboxylic acid (4-acetyl-phenyl)-amide], the IC50 was found to be 2.26 µM.
As for `CC(=O)c1ccc(NC(=O)N2CCC(=O)N3[C@@H]2CN(CCc2cccc(F)c2)C(=O)[C@@H]3Cc2cc(Br)c(O)c(Br)c2)cc1` [Compound 34, (6S,9aS)-6-(3,5-Dibromo-4-hydroxy-benzyl)-8-[2-(3-fluoro-phenyl)-ethyl]-4,7-dioxo-hexahydro-pyrazino[1,2-a]pyrimidine-1-carboxylic acid (4-acetyl-phenyl)-amide], the concentration for half-maximal inhibition (IC50) was found to be 1.17 µM.
`CC(=O)c1ccc(NC(=O)N2CCC(=O)N3[C@@H]2CN(CCc2cccc(F)c2)C(=O)[C@@H]3CCS(C)(=O)=O)cc1` [Compound 36, (6S,9aS)-8-[2-(3-Fluoro-phenyl)-ethyl]-6-(2-methanesulfonyl-ethyl)-4,7-dioxo-hexahydro-pyrazino[1,2-a]pyrimidine-1-carboxylic acid (4-acetyl-phenyl)-amide] showed an IC50 of 0.35 µM.
In turn, `CC[C@@H](C)[C@H]1C(=O)N(CCc2cccc(F)c2)C[C@@H]2N(C(=O)Nc3ccc(C(C)=O)cc3)CCC(=O)N12` [Compound 39, (6S,9aS)-6-(1R-methyl-propyl)-8-[2-(3-fluoro-phenyl)-ethyl]--4,7-dioxo-hexahydro-pyrazino[1,2-a]pyrimidine-1-carboxylic acid (4-acetyl-phenyl)-amide] had an IC50 of 0.233 µM.
For `CC(=O)c1ccc(NC(=O)N2CCC(=O)N3[C@@H]2CN(CCc2cccc(F)c2)C(=O)[C@@H]3CCC(N)=O)cc1` [Compound 40, (6S,9aS)-6-(2-Carbamoyl-ethyl)-8-[2-(3-fluoro-phenyl)-ethyl]-4,7-dioxo-hexahydro-pyrazino[1,2-a]pyrimidine-1-carboxylic acid (4-acetyl-phenyl)-amide], the half-maximal inhibitory concentration (IC50) was found to be 2.36 µM.
The value for `CC(=O)c1ccc(NC(=O)N2CCC(=O)N3[C@@H](C4CCNCC4)C(=O)N(CCc4cccc(F)c4)C[C@H]23)cc1` [Compound 43, (6S,9aS)-8-[2-(3-Fluoro-phenyl)-ethyl]-4,7-dioxo-6-piperidin-4-yl-hexahydro-pyrazino[1,2-a]pyrimidine-1-carboxylic acid (4-acetyl-phenyl)-amide] was 4 µM.
`CC(=O)c1ccc(NC(=O)N2CCC(=O)N3[C@@H](c4ccccc4)C(=O)N(CCc4cccc(F)c4)C[C@H]23)cc1` [Compound 46, (6S,9aS)-8-[2-(3-Fluoro-phenyl)-ethyl]-4,7-dioxo-6-phenyl-hexahydro-pyrazino[1,2-a]pyrimidine-1-carboxylic acid (4-acetyl-phenyl)-amide] showed an IC50 of 0.167 µM.
In turn, `CC(=O)c1ccc(NC(=O)N2CCC(=O)N3[C@@H](C4CCCCC4)C(=O)N(CCc4cccc(F)c4)C[C@H]23)cc1` [Compound 48, (6S,9aS)-6-Cyclohexyl-8-[2-(3-fluoro-phenyl)-ethyl]-4,7-dioxo-hexahydro-pyrazino[1,2-a]pyrimidine-1-carboxylic acid (4-acetyl-phenyl)-amide] came in with an IC50 of 0.115 µM.
`CC(=O)c1ccc(NC(=O)N2CCC(=O)N3[C@@H](C4CCOCC4)C(=O)N(CCc4cccc(F)c4)C[C@H]23)cc1` [Compound 52, (6S,9aS)-8-[2-(3-Fluoro-phenyl)-ethyl]-4,7-dioxo-6-(tetrahydro-pyran-4-yl)-hexahydro-pyrazino[1,2-a]pyrimidine-1-carboxylic acid (4-acetyl-phenyl)-amide] showed an IC50 of 0.358 µM.
`CC(=O)c1ccc(NC(=O)N2c3cc4ccccc4cc3C(=O)N3[C@@H](C4CCOCC4)C(=O)N(CCc4cccc(F)c4)C[C@H]23)cc1` [Compound 53, (4S,12S)-2-[2-(3-Fluoro-phenyl)-ethyl]-3,5-dioxo-4-(tetrahydro-pyran-4-yl)-1,3,4,12a-tetrahydro-2H,5H-2,4a,12-triaza-naphthacene-12-carboxylic acid (4-acetyl-phenyl)-amide] displayed an IC50 of 2.97 µM.
In the case of `CC(=O)c1ccc(NC(=O)N2CCC(=O)N3[C@@H]2CN(CCc2cccc(F)c2)C(=O)[C@@H]3Cc2cncn2C)cc1` [Compound 54, (6S,9aS)-8-[2-(3-Fluoro-phenyl)-ethyl]-6-(3-methyl-3H-imidazol-4-ylmethyl)-4,7-dioxo-hexahydro-pyrazino[1,2-a]pyrimidine-1-carboxylic acid (4-acetyl-phenyl)-amide], the IC50 turned out to be 1.27 µM.
`CC(=O)c1ccc(NC(=O)N2CCC(=O)N3[C@@H]2CN(CCc2cccc(F)c2)C(=O)[C@@H]3Cc2cc(F)cc(F)c2)cc1` [Compound 55, (6S,9aS)-6-(3,5-Difluoro-benzyl)-8-[2-(3-fluoro-phenyl)-ethyl]-4,7-dioxo-hexahydro-pyrazino[1,2-a]pyrimidine-1-carboxylic acid (4-acetyl-phenyl)-amide] had an IC50 of 0.4 µM.
For `CC(=O)c1ccc(NC(=O)N2CCC(=O)N3[C@@H]2CN(CCc2cccc(F)c2)C(=O)[C@@H]3Cc2cc(F)c(F)c(F)c2)cc1` [Compound 56, (6S,9aS)-8-[2-(3-Fluoro-phenyl)-ethyl]-4,7-dioxo-6-(3,4,5-trifluoro-benzyl)-hexahydro-pyrazino[1,2-a]pyrimidine-1-carboxylic acid (4-acetyl-phenyl)-amide], the IC50 was found to be 0.665 µM.
Turning to `CC(=O)c1ccc(NC(=O)N2CCC(=O)N3[C@@H]2CN(CCc2cccc(F)c2)C(=O)[C@@H]3Cc2c(F)c(F)c(F)c(F)c2F)cc1` [Compound 57, (6S,9aS)-8-[2-(3-Fluoro-phenyl)-ethyl]-4,7-dioxo-6-pentafluorophenylmethyl-hexahydro-pyrazino [1,2a]pyrimidine-1-carboxylic acid (4-acetyl-phenyl)-amide], the concentration for half-maximal inhibition (IC50) stood at 0.5 µM.
`CC(=O)c1ccc(NC(=O)N2CCC(=O)N3[C@@H]2CN(CCc2cccc(F)c2)C(=O)[C@@H]3Cc2ccc(F)cc2)cc1` [Compound 58, (6S,9aS)-6-(4-Fluoro-benzyl)-8-[2-(3-fluoro-phenyl)-ethyl]-4,7-dioxo-hexahydro-pyrazino[1,2-a]pyrimidine-1-carboxylic acid (4-acetyl-phenyl)-amide] returned an IC50 of 0.814 µM.
As to `CC(=O)c1ccc(NC(=O)N2CCC(=O)N3[C@@H](c4ccc(F)c(F)c4)C(=O)N(CCc4ccccc4)C[C@H]23)cc1` [Compound 59, (6S,9aS)-6-(3,4-Difluoro-phenyl)-4,7-dioxo-8-phenethyl-hexahydro-pyrazino[1,2-a]pyrimidine-1-carboxylic acid (4-acetyl-phenyl)-amide], the IC50 worked out at 0.271 µM.
